In the NIST ThermoML archive (doi:10.1016/j.jct.2016.09.007):

Assay: xn = mol fraction of the nth substance listed
Conditions: 93.2 kPa, Liquid; for speed of sound: Frequency=3 MHz, Sing-around technique in a fixed-path interferometer; for mass density: Vibrating tube method

CCCC(=O)[O-].CCCC[NH3+] [n-butylammonium butanoate] + CO
Conditions	mass density, 293.15 K [kg/m3]	mass density, 298.15 K [kg/m3]	mass density, 303.15 K [kg/m3]	mass density, 308.15 K [kg/m3]	mass density, 313.15 K [kg/m3]	speed of sound, 293.15 K [m/s]	speed of sound, 298.15 K [m/s]	speed of sound, 303.15 K [m/s]	speed of sound, 308.15 K [m/s]	speed of sound, 313.15 K [m/s]
x1 = 0.0503	827.536	823.196	818.837	814.456	810.048	1187.9	1171.5	1155.3	1139.3	1123.3
x1 = 0.0999	850.303	846.198	842.076	837.934	833.767	1233.9	1217.6	1201.5	1185.5	1169.7
x1 = 0.1491	866.376	862.414	858.459	854.49	850.482	1268.2	1251.9	1235.9	1219.9	1204.1
x1 = 0.2011	878.773	874.958	871.116	867.265	863.431	1295.6	1279.4	1263.3	1247.4	1231.6
x1 = 0.2525	888.142	884.423	880.696	876.953	873.199	1316.7	1300.5	1284.4	1268.5	1252.7
x1 = 0.3057	895.564	891.923	888.274	884.609	880.93	1333.9	1317.8	1301.7	1285.8	1270
x1 = 0.3476	900.631	896.968	893.253	889.68	886.019	1345.6	1329.3	1313.2	1297.2	1281.4
x1 = 0.3966	905.316	901.759	898.192	894.632	891.1	1356.4	1340.1	1324	1308	1292.1
x1 = 0.4491	909.413	905.905	902.401	898.901	895.415	1366.1	1349.7	1333.5	1317.5	1301.7
x1 = 0.501	912.93	909.441	905.946	902.476	899.051	1374.4	1358	1341.8	1325.7	1310
x1 = 0.541	915.316	911.864	908.414	904.968	901.531	1380.2	1363.7	1347.4	1331.3	1315.4
x1 = 0.5913	917.715	914.276	910.846	907.442	904.079	1386	1369.4	1353.1	1336.9	1321
x1 = 0.6445	920.109	916.724	913.329	909.923	906.495	1391.7	1374.9	1358.5	1342.3	1326.3
x1 = 0.6895	921.905	918.523	915.128	911.737	908.371	1396.6	1379.8	1363.2	1346.9	1330.8
x1 = 0.7391	923.626	920.287	916.93	913.559	910.183	1401.3	1384.2	1367.4	1350.9	1334.8
x1 = 0.8007	925.47	922.166	918.855	915.534	912.194	1407.1	1389.5	1372.5	1355.8	1339.5
x1 = 0.8243	926.211	922.909	919.611	916.299	912.971	1409.6	1391.8	1374.6	1357.8	1341.4
x1 = 0.8973	927.898	924.584	921.292	918.007	914.707	1416.7	1398	1380.2	1362.9	1346.2
x1 = 0.932	928.804	925.491	922.195	918.913	915.625	1420.3	1401.2	1383	1365.5	1348.5
x1 = 1	928.794	925.509	922.217	918.88	915.567	1431.5	1410.3	1390.4	1371.5	1353.6

CCCC(=O)[O-].CCCC[NH3+] [n-butylammonium butanoate] + CCCCO
Conditions	mass density, 293.15 K [kg/m3]	mass density, 298.15 K [kg/m3]	mass density, 303.15 K [kg/m3]	mass density, 308.15 K [kg/m3]	mass density, 313.15 K [kg/m3]	speed of sound, 293.15 K [m/s]	speed of sound, 298.15 K [m/s]	speed of sound, 303.15 K [m/s]	speed of sound, 308.15 K [m/s]	speed of sound, 313.15 K [m/s]
x1 = 0.0305	817.522	813.696	809.839	805.95	802.02	1266.2	1249.1	1232	1215.2	1198.4
x1 = 0.053	822.696	818.886	815.044	811.168	807.257	1271.7	1254.5	1237.4	1220.5	1203.8
x1 = 0.101	833.099	829.318	825.508	821.665	817.785	1283.3	1266	1248.9	1231.9	1215
x1 = 0.1611	844.531	840.793	837.028	833.231	829.399	1296.3	1279	1261.8	1244.8	1227.9
x1 = 0.2022	851.656	847.949	844.213	840.451	836.653	1304.8	1287.5	1270.3	1253.2	1236.3
x1 = 0.2509	859.278	855.605	851.908	848.183	844.427	1314	1296.7	1279.5	1262.5	1245.6
x1 = 0.3027	866.842	863.204	859.543	855.853	852.119	1323.6	1306.3	1289.2	1272.1	1255.3
x1 = 0.3528	873.375	869.771	866.147	862.502	858.829	1332.3	1315	1297.9	1280.9	1264.1
x1 = 0.4053	879.699	876.13	872.54	868.931	865.297	1340.8	1323.5	1306.4	1289.5	1272.7
x1 = 0.449	884.611	881.064	877.503	873.925	870.321	1347.7	1330.5	1313.3	1296.4	1279.7
x1 = 0.4988	889.855	886.337	882.803	879.25	875.67	1355.4	1338.1	1321	1304.1	1287.4
x1 = 0.5505	894.968	891.475	887.969	884.447	880.9	1363.2	1345.9	1328.8	1311.9	1295.2
x1 = 0.6005	899.486	896.02	892.541	889.046	885.533	1370.4	1353	1335.9	1319	1302.3
x1 = 0.6491	903.634	900.198	896.744	893.273	889.785	1377.4	1359.9	1342.7	1325.8	1309.1
x1 = 0.6982	907.626	904.22	900.798	897.354	893.894	1384.5	1366.9	1349.6	1332.6	1316
x1 = 0.7456	911.277	907.896	904.501	901.087	897.65	1391.5	1373.7	1356.2	1339.1	1322.3
x1 = 0.7944	914.718	911.354	907.982	904.593	901.177	1398.7	1380.5	1362.8	1345.5	1328.7
x1 = 0.8462	918.325	914.961	911.608	908.243	904.86	1406.7	1388	1370	1352.5	1335.5
x1 = 0.8928	921.358	917.984	914.632	911.284	907.92	1414.2	1394.9	1376.5	1358.7	1341.5
x1 = 0.9463	924.512	921.173	917.809	914.461	911.112	1422.7	1402.7	1383.7	1365.5	1348
x1 = 1	928.794	925.509	922.217	918.88	915.567	1431.5	1410.3	1390.4	1371.5	1353.6
